According to paper PMC9532703, “A novel small molecule RK-019 inhibits FGFR2-amplification gastric cancer cell proliferation and induces apoptosis in vitro and in vivo” (Frontiers in Pharmacology, 2022):

Tests used:
Assay in all cases: Kinase selectivity panel
Assay type in all cases: biochemical
Settings in all cases: read-out: Inhibition(%) @ 1 µM RK-019
Arg(m) = molecular target: T1, Arg(m) (Mus musculus, UniProt Q4JIM5)
T1 construct: purchased Eurofins Discovery Services (KinaseProfiler)

CDK1/cyclinB(h) = molecular target: T2, CDK1/cyclinB(h) (Homo sapiens, UniProt P06493)
T2 construct: purchased Eurofins Discovery Services (KinaseProfiler)
Method in brief: (§1)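 Read-out is percent inhibition from an ATP-site competition binding assay, compound at 1 µM, recombinant human kinases.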

CaMKIIδ(h) = molecular target: T3, CaMKIIδ(h) (Homo sapiens, UniProt Q13557)
T3 construct: purchased Eurofins Discovery Services (KinaseProfiler)
Method in brief: as §1

CaMKIV(h) = molecular target: T4, CaMKIV(h) (Homo sapiens, UniProt Q16566)
T4 construct: purchased Eurofins Discovery Services (KinaseProfiler)
Method in brief: as §1

ChaK1(h) = molecular target: T5, ChaK1(h) (Homo sapiens, UniProt Q96QT4)
T5 construct: purchased Eurofins Discovery Services (KinaseProfiler)
Method in brief: as §1

DAPK1(h) = molecular target: T6, DAPK1(h) (Homo sapiens, UniProt P53355)
T6 construct: purchased Eurofins Discovery Services (KinaseProfiler)
Method in brief: as §1

EGFR(L858R)(h) = molecular target: T7, EGFR(L858R)(h) (Homo sapiens, UniProt P00533, L858R)
T7 construct: purchased Eurofins Discovery Services (KinaseProfiler)
Method in brief: as §1

EphA2(h) = molecular target: T8, EphA2(h) (Homo sapiens, UniProt P29317)
T8 construct: purchased Eurofins Discovery Services (KinaseProfiler)
Method in brief: as §1

FAK(h) = molecular target: T9, FAK(h) (Homo sapiens, UniProt Q05397)
T9 construct: purchased Eurofins Discovery Services (KinaseProfiler)
Method in brief: as §1

Fms(h) = molecular target: T10, Fms(h) (Homo sapiens, UniProt P07333)
T10 construct: purchased Eurofins Discovery Services (KinaseProfiler)
Method in brief: as §1

GRK1(h) = molecular target: T11, GRK1(h) (Homo sapiens, UniProt Q15835)
T11 construct: purchased Eurofins Discovery Services (KinaseProfiler)
Method in brief: as §1

HIPK2(h) = molecular target: T12, HIPK2(h) (Homo sapiens, UniProt Q9H2X6)
T12 construct: purchased Eurofins Discovery Services (KinaseProfiler)
Method in brief: as §1

IR(h), activated = molecular target: T13, IR(h), activated (Homo sapiens, UniProt P06213)
T13 construct: purchased Eurofins Discovery Services (KinaseProfiler)
Method in brief: as §1

LKB1(h) = molecular target: T14, LKB1(h) (Homo sapiens, UniProt Q15831)
T14 construct: purchased Eurofins Discovery Services (KinaseProfiler)
Method in brief: as §1

LRRK2(h) = molecular target: T15, LRRK2(h) (Homo sapiens, UniProt Q5S007)
T15 construct: purchased Eurofins Discovery Services (KinaseProfiler)
Method in brief: as §1

Lck(h) = molecular target: T16, Lck(h) (Homo sapiens, UniProt P06239)
T16 construct: purchased Eurofins Discovery Services (KinaseProfiler)
Method in brief: as §1

MAK(h) = molecular target: T17, MAK(h) (Homo sapiens, UniProt P20794)
T17 construct: purchased Eurofins Discovery Services (KinaseProfiler)
Method in brief: as §1

MAPKAP-K3(h) = molecular target: T18, MAPKAP-K3(h) (Homo sapiens, UniProt Q16644)
T18 construct: purchased Eurofins Discovery Services (KinaseProfiler)
Method in brief: as §1

MKK6(h) = molecular target: T19, MKK6(h) (Homo sapiens, UniProt P52564)
T19 construct: purchased Eurofins Discovery Services (KinaseProfiler)
Method in brief: as §1

MST1(h) = molecular target: T20, MST1(h) (Homo sapiens, UniProt Q13043)
T20 construct: purchased Eurofins Discovery Services (KinaseProfiler)
Method in brief: as §1

Mer(h) = molecular target: T21, Mer(h) (Homo sapiens, UniProt Q12866)
T21 construct: purchased Eurofins Discovery Services (KinaseProfiler)
Method in brief: as §1

NLK(h) = molecular target: T22, NLK(h) (Homo sapiens, UniProt Q9UBE8)
T22 construct: purchased Eurofins Discovery Services (KinaseProfiler)
Method in brief: as §1

[1] = molecular target: T23, PI3 Kinase (p110a(H1047R)/p85a)(h) (Homo sapiens, UniProt P42336, H1047R)
T23 construct: purchased Eurofins Discovery Services (KinaseProfiler)
Method in brief: as §1

[2] = molecular target: T24, PI3 Kinase (p110a/p85a)(h) (Homo sapiens, UniProt P42336)
T24 construct: purchased Eurofins Discovery Services (KinaseProfiler)
Method in brief: as §1

Pim-2(h) = molecular target: T25, Pim-2(h) (Homo sapiens, UniProt Q9P1W9)
T25 construct: purchased Eurofins Discovery Services (KinaseProfiler)
Method in brief: as §1

RIPK1(h) = molecular target: T26, RIPK1(h) (Homo sapiens, UniProt Q13546)
T26 construct: purchased Eurofins Discovery Services (KinaseProfiler)
Method in brief: as §1

ROCK-I(h) = molecular target: T27, ROCK-I(h) (Homo sapiens, UniProt Q13464)
T27 construct: purchased Eurofins Discovery Services (KinaseProfiler)
Method in brief: as §1

Rsk4(h) = molecular target: T28, Rsk4(h) (Homo sapiens, UniProt Q9UK32)
T28 construct: purchased Eurofins Discovery Services (KinaseProfiler)
Method in brief: as §1

STK16(h) = molecular target: T29, STK16(h) (Homo sapiens, UniProt O75716)
T29 construct: purchased Eurofins Discovery Services (KinaseProfiler)
Method in brief: as §1

STK25(h) = molecular target: T30, STK25(h) (Homo sapiens, UniProt O00506)
T30 construct: purchased Eurofins Discovery Services (KinaseProfiler)
Method in brief: as §1

TAF1L(h) = molecular target: T31, TAF1L(h) (Homo sapiens, UniProt Q8IZX4)
T31 construct: purchased Eurofins Discovery Services (KinaseProfiler)
Method in brief: as §1

TAO2(h) = molecular target: T32, TAO2(h) (Homo sapiens, UniProt Q9UL54)
T32 construct: purchased Eurofins Discovery Services (KinaseProfiler)
Method in brief: as §1

TLK2(h) = molecular target: T33, TLK2(h) (Homo sapiens, UniProt Q86UE8)
T33 construct: purchased Eurofins Discovery Services (KinaseProfiler)
Method in brief: as §1

Wee1B(h) = molecular target: T34, Wee1B(h) (Homo sapiens, UniProt P0C1S8)
T34 construct: purchased Eurofins Discovery Services (KinaseProfiler)
Method in brief: as §1

cKit(D816V)(h) = molecular target: T35, cKit(D816V)(h) (Homo sapiens, UniProt P10721, D816V)
T35 construct: purchased Eurofins Discovery Services (KinaseProfiler)
Method in brief: as §1

T16 sequence (P06239 whole entry): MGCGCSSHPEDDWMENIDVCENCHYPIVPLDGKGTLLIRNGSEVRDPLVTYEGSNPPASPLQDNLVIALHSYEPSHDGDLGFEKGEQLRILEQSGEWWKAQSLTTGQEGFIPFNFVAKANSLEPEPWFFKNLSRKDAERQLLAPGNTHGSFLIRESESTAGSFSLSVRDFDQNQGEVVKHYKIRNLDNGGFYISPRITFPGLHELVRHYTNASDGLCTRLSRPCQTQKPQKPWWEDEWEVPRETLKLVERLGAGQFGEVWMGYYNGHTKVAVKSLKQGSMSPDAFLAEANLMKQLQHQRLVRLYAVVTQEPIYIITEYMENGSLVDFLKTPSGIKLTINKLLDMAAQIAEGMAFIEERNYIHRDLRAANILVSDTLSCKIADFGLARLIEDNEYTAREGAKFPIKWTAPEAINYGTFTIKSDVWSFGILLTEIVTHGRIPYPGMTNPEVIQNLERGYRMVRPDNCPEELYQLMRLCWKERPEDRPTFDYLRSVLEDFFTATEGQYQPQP
T25 sequence (Q9P1W9 whole entry): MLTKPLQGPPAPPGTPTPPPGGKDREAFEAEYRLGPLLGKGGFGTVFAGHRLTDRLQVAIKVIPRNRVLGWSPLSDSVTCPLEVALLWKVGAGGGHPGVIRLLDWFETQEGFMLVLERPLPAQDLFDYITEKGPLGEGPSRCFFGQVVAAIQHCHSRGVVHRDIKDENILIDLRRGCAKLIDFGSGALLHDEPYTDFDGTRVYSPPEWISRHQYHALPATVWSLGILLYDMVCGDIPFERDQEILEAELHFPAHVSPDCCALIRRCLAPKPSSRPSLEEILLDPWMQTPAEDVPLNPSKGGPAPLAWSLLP
T5 sequence (Q96QT4 whole entry): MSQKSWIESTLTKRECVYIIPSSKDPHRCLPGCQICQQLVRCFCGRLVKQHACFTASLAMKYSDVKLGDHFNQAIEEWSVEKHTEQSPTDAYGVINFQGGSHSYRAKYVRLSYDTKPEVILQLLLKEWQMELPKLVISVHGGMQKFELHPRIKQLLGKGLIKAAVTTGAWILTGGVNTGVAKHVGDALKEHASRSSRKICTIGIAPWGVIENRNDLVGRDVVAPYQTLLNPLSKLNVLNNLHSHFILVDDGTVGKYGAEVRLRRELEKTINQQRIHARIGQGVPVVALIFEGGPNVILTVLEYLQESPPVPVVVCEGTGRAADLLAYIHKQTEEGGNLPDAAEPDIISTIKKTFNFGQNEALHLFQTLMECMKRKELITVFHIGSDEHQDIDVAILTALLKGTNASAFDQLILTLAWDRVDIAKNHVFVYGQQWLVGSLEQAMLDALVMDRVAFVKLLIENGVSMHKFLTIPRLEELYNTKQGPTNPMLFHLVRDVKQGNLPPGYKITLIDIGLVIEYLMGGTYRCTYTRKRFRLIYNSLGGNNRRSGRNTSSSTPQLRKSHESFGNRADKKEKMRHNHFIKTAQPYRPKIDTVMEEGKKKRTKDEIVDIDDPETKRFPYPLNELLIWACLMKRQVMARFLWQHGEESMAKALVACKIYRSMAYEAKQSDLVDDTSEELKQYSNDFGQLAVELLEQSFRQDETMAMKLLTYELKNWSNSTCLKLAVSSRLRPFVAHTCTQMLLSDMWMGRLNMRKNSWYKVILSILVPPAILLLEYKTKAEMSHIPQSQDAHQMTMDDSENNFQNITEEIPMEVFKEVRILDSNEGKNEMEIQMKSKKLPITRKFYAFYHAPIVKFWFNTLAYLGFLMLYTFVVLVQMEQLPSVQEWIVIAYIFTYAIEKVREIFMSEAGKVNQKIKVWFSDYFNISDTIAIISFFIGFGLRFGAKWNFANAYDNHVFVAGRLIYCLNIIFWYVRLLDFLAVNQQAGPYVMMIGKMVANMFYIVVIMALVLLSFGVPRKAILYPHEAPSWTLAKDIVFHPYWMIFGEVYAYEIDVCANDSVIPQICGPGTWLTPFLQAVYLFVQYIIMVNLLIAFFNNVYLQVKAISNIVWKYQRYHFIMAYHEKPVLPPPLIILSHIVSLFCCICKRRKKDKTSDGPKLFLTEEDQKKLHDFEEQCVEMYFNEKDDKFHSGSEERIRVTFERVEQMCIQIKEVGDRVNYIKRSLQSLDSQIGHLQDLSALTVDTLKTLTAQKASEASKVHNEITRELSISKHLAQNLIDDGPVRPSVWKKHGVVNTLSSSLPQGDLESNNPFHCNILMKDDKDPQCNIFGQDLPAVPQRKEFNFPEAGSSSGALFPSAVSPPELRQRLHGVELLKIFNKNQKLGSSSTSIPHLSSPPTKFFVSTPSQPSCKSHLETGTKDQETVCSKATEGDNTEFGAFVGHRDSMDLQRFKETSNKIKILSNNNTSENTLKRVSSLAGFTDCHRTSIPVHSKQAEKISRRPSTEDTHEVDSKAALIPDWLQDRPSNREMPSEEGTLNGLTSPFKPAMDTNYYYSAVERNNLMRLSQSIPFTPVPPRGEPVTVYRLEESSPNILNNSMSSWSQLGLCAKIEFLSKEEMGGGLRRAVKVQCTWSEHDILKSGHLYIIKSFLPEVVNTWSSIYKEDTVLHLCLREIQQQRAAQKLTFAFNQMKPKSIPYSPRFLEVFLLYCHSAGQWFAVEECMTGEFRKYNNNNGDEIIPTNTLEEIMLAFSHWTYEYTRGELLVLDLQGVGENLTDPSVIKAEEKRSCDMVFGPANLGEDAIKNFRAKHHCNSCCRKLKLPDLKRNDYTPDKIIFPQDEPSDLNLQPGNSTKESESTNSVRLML
T9 sequence (Q05397 whole entry): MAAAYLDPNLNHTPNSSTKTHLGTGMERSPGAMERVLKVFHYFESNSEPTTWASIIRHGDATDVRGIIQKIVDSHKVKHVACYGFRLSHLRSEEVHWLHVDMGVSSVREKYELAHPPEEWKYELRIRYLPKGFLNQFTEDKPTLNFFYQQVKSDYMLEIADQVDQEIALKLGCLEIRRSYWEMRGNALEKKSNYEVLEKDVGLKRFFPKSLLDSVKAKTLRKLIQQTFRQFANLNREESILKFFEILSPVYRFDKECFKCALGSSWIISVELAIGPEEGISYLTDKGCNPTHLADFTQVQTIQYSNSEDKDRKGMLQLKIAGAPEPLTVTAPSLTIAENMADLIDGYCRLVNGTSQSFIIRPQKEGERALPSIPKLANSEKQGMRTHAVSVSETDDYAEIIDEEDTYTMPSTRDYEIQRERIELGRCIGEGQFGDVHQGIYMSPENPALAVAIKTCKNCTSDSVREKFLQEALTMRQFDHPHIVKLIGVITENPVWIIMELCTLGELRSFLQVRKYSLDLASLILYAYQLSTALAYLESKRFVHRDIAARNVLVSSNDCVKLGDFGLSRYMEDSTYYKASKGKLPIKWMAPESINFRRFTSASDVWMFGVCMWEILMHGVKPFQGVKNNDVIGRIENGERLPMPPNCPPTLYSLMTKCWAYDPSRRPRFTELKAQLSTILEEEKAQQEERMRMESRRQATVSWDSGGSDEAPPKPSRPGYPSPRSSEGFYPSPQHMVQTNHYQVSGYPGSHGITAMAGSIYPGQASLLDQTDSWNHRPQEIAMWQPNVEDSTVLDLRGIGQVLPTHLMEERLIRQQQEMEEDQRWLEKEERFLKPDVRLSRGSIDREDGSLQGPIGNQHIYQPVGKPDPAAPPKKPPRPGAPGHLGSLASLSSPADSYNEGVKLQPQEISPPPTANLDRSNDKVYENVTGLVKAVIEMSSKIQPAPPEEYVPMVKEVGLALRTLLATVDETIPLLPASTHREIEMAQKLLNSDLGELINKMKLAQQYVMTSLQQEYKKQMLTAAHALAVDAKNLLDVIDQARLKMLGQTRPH
T28 sequence (Q9UK32 whole entry): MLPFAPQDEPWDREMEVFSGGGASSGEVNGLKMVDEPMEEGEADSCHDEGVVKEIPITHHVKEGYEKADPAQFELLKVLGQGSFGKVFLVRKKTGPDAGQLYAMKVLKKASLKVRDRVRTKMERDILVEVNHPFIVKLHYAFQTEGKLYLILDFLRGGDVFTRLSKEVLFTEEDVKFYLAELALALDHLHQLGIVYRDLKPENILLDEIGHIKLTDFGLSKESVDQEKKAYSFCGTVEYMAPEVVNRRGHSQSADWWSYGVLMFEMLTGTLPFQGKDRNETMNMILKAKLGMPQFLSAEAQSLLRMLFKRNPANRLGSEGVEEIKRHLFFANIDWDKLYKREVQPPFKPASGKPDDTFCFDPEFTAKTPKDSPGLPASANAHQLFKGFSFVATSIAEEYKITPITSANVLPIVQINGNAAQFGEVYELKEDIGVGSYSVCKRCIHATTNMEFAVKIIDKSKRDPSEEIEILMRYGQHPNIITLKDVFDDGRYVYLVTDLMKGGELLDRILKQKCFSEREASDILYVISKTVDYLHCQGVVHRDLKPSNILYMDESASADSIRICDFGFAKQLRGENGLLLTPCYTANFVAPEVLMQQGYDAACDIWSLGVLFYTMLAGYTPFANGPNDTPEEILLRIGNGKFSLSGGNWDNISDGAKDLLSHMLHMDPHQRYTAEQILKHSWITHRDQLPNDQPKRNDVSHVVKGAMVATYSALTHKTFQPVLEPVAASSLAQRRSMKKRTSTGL
T34 sequence (P0C1S8 whole entry): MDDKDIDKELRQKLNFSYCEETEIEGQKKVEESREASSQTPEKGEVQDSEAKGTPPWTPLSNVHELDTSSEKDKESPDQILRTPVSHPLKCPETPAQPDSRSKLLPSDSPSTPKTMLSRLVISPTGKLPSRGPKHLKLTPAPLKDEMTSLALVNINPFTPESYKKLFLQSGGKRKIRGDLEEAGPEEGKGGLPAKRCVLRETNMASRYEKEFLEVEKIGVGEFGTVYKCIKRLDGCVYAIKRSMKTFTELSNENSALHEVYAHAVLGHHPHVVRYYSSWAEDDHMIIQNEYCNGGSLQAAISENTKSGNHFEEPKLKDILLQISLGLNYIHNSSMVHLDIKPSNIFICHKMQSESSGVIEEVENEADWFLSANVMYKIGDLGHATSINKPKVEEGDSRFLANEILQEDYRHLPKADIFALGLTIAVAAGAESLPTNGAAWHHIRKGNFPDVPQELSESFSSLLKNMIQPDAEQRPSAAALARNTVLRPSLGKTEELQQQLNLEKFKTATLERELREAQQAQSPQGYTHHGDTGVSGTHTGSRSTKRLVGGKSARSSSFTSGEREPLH

Which activity at 1 µM (Arg(m)) does the source give for COc1cc(OC)cc(N(CCN[C@H](C)CO)c2ccc3ncc(-c4cnn(C)c4)c(=O)n3c2)c1 [RK-019, (R)-7-((3,5-dimethoxyphenyl) (2-((1-hydroxypropan-2-yl)amino)ethyl)amino)-3-(1-methyl-1H-pyrazol-4-yl)-4H-pyrido [1,2-a]pyrimidin-4-one] here?
The activity at 1 µM was 88%.

What about the activity at 1 µM (CDK1/cyclinB(h)) of the same molecule?
Its activity at 1 µM is 99%.

And the activity at 1 µM (CaMKIIδ(h))?
The activity at 1 µM was 108%.

And the activity at 1 µM (CaMKIV(h))?
Its activity at 1 µM is 113%.

What about the activity at 1 µM (ChaK1(h)) of the same molecule?
Its activity at 1 µM is 100%.

What about the activity at 1 µM (DAPK1(h)) of the same molecule?
The activity at 1 µM was 100%.

What about the activity at 1 µM (EGFR(L858R)(h)) of the same molecule?
Its activity at 1 µM is 114%.

And the activity at 1 µM (EphA2(h))?
Its activity at 1 µM is 61%.

And the activity at 1 µM (FAK(h))?
Its activity at 1 µM is 105%.

And the activity at 1 µM (Fms(h))?
Its activity at 1 µM is 16%.

What about the activity at 1 µM (GRK1(h)) of the same molecule?
Its activity at 1 µM is 94%.

What about the activity at 1 µM (HIPK2(h)) of the same molecule?
Its activity at 1 µM is 83%.

What about the activity at 1 µM (IR(h), activated) of the same molecule?
Its activity at 1 µM is 95%.

And the activity at 1 µM (LKB1(h))?
The activity at 1 µM was 94%.

And the activity at 1 µM (LRRK2(h))?
Its activity at 1 µM is 80%.

And the activity at 1 µM (Lck(h))?
The activity at 1 µM was 30%.

What about the activity at 1 µM (MAK(h)) of the same molecule?
Its activity at 1 µM is 110%.

And the activity at 1 µM (MAPKAP-K3(h))?
Its activity at 1 µM is 109%.

What about the activity at 1 µM (MKK6(h)) of the same molecule?
The activity at 1 µM was 83%.

What about the activity at 1 µM (MST1(h)) of the same molecule?
Its activity at 1 µM is 121%.

What about the activity at 1 µM (Mer(h)) of the same molecule?
The activity at 1 µM was 108%.

What about the activity at 1 µM (NLK(h)) of the same molecule?
The activity at 1 µM was 86%.

And the activity at 1 µM [1]?
Its activity at 1 µM is 100%.

And the activity at 1 µM [2]?
Its activity at 1 µM is 101%.

And the activity at 1 µM (Pim-2(h))?
Its activity at 1 µM is 98%.

What about the activity at 1 µM (RIPK1(h)) of the same molecule?
Its activity at 1 µM is 85%.

And the activity at 1 µM (ROCK-I(h))?
The activity at 1 µM was 101%.

What about the activity at 1 µM (Rsk4(h)) of the same molecule?
Its activity at 1 µM is 146%.

And the activity at 1 µM (STK16(h))?
Its activity at 1 µM is 113%.

And the activity at 1 µM (STK25(h))?
The activity at 1 µM was 66%.

And the activity at 1 µM (TAF1L(h))?
Its activity at 1 µM is 100%.

And the activity at 1 µM (TAO2(h))?
The activity at 1 µM was 95%.

And the activity at 1 µM (TLK2(h))?
The activity at 1 µM was 124%.

And the activity at 1 µM (Wee1B(h))?
Its activity at 1 µM is 107%.

What about the activity at 1 µM (cKit(D816V)(h)) of the same molecule?
The activity at 1 µM was 93%.
